Results on 4 compounds are retold here after paper PMC10878397, “Development of Potent Dual BET/HDAC Inhibitors via Pharmacophore Merging and Structure-Guided Optimization” (ACS Chemical Biology, 2024).

The term Kd denotes the concentration at which binding is half-saturated.

Where two headings read alike, the source gives them in different places.

The target in one assay is BRD4 BD1 (Homo sapiens, UniProt O60885). Kind of assay: Isothermal titration calorimetry. The class given is binding. Set-up: BRD4 BD1 (residues N44-E168) for structural studies was subcloned in the pNIC28-Bsa4 vector; His6 (followed by a TEV site) (N, cleaved yes); made in house; host or cells: Escherichia coli BL21(D3)-R3-pRARE2 Rosetta. Conditions: for ITC -TΔS / ITC Ka / ITC n (stoichiometry) / ITC ΔG / ITC ΔH / ITC ΔS / Kd: 15 °C. As for the experimental part: ITC measurements were performed using a Nano ITC microcalorimeter (TA Instruments, New Castle, Pennsylvania). For all experiments, reverse titration was performed (syringe containing the protein solution; cell containing the ligand) in ITC buffer containing 25 mM HEPES, pH 7.5, 150 mM NaCl, 0.5 mM TCEP, and 5% glycerol. All compounds were diluted from 50 mM DMSO stocks to 20 μΜ in ITC buffer, and BRD4-BD1 was diluted to 120 μΜ in a DMSO-adjusted ITC buffer. BRD4-BD1 (120 μΜ) was titrated into the compound solution (20 μΜ) with an initial injection (4 μL) followed by 29 identical injections (8 μL), at a rate of 0.5 μL/s and with 150 or 200 s intervals. All experiments were performed at 15 °C while stirring at 350 rpm. The heat of dilution was determined by independent titrations (protein into buffer) and subtracted from the experimental raw data. Data were processed using NanoAnalyze software (version 3.10.0) provided by the instrument manufacturer. The first injection was excluded from the analysis, and fitted curves were generated by applying the independent model (single binding site) to the raw data. Complete thermodynamic data analysis can be found in Table S2.

The target of the next assay is T1, HDAC7 (Homo sapiens, UniProt Q8WUI4).
T1 construct: purchased Reaction Biology
Kind of assay: HDAC selectivity profile (Reaction Biology). The class given is biochemical. The note with it: no inhibitor control as 100%, read-out: % Enzyme activity HDAC7. As to the method:
(§1) The reactions were performed by Reaction Biology using a protease-coupled assay with fluorogenic substrates where, after deacetylation by the HDAC and subsequent proteolytic digest, the free fluorophore 7-amino-4-methyl coumarin (AMC) can be quantified.[60] The following substrates were used for activity assays: HDACs 1, 2, 3, and 6: fluorogenic tetrapeptide from p53 residues 379–382 (RHKK(Ac) AMC); HDACs 4, 5, 7, 9, and 11: fluorogenic HDAC class2a substrate (trifluoroacetyl lysine); HDAC8: twice acetylated fluorogenic tetrapeptide from p53 residues 379–382 (RHK(Ac) K(Ac) AMC); HDAC10: Ac-spermidine-AMC. Data are given as % residual activity compared with the uninhibited control reaction.

The target of a further assay is T2, HDAC5 (Homo sapiens, UniProt Q9UQL6).
T2 construct: purchased Reaction Biology
Description: HDAC selectivity profile (Reaction Biology). The class given is biochemical. Conditions: no inhibitor control as 100%, read-out: % Enzyme activity HDAC5. As to the method:
as §1

In a further assay the target is T3, HDAC8 (Homo sapiens, UniProt Q9BY41).
T3 construct: purchased Reaction Biology
Kind of assay: HDAC selectivity profile (Reaction Biology). The note with it: no inhibitor control as 100%, read-out: % Enzyme activity HDAC8. The class given is biochemical. As for the experimental part: as §1

For the next assay, the target named is T4, HDAC11 (Homo sapiens, UniProt Q96DB2).
T4 construct: purchased Reaction Biology
T4 sequence (Q96DB2 1-347): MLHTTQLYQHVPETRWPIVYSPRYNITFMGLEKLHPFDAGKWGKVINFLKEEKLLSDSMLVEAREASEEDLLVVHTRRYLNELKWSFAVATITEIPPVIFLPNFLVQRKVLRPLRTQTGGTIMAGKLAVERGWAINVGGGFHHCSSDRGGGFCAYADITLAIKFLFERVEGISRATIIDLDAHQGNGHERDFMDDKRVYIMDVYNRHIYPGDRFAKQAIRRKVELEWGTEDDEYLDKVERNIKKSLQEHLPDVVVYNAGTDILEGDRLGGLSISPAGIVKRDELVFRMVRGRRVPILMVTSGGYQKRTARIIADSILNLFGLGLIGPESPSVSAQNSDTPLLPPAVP
Kind of assay: HDAC selectivity profile (Reaction Biology). The class given is biochemical. The note with it: no inhibitor control as 100%. As to the method:
as §1

Another assay deals with T5, HDAC4 (Homo sapiens, UniProt P56524).
T5 construct: purchased Reaction Biology
Kind of assay: HDAC selectivity profile (Reaction Biology). The class given is biochemical. The note with it: no inhibitor control as 100%, read-out: % Enzyme activity HDAC4. As for the experimental part: as §1

A further assay addresses HDAC2 (Homo sapiens, UniProt Q92769). Description: HDAC selectivity profile (Reaction Biology). The class given is biochemical. Further details: purchased Reaction Biology. The note with it: no inhibitor control as 100%, read-out: % Enzyme activity HDAC2. As for the experimental part: as §1
For another assay, the target named is HDAC1 (Homo sapiens, UniProt Q13547). Kind of assay: HDAC selectivity profile (Reaction Biology). Conditions: no inhibitor control as 100%, read-out: % Enzyme activity HDAC1. Set-up: purchased Reaction Biology. The class given is biochemical. As for the experimental part:
as §1

A further assay deals with HDAC3 (Homo sapiens, UniProt O15379). Description: HDAC selectivity profile (Reaction Biology). The class given is biochemical. Further details: purchased Reaction Biology. The note with it: no inhibitor control as 100%. As for the experimental part: as §1
The test system of assay [1] is zinc-dependent HDACs (HDAC1–11). Description: HDAC selectivity profile, whole panel. The class given is biochemical, human. The note with it: 1 and 10 μM. As for the experimental part: as §1
Assay [2] relates to HEXIM1 mRNA in PaTu8988T cells. Description: Quantitative RT-PCR of BET-inhibition biomarker. The class given is cell-based. The note with it: 6 h, 1 μΜ compound. As for the experimental part:
Total RNA was extracted from cell culture using the Maxwell RSC simply RNA Cells Kit (Promega) according to the manufacturer’s protocol. cDNA was synthesized using PrimeScript Reverse Transcriptase (TakaRa) and amplified using homemade PCR master mix. The amplicon was detected by EvaGreen Dye using a LightCycler 480 instrument (Roche). PCR conditions were 5 min at 95 °C, followed by 45 cycles of 95 °C for 10 s, 59 °C for 10 s, and 72 °C for 20 s. The relative gene expression levels were normalized to GUSB and calculated using the 2^–ΔΔC^t method.

Setting [3] is: 95% confidence level, read-out: ITC Kd.

HDAC3, sequence (O15379 whole entry): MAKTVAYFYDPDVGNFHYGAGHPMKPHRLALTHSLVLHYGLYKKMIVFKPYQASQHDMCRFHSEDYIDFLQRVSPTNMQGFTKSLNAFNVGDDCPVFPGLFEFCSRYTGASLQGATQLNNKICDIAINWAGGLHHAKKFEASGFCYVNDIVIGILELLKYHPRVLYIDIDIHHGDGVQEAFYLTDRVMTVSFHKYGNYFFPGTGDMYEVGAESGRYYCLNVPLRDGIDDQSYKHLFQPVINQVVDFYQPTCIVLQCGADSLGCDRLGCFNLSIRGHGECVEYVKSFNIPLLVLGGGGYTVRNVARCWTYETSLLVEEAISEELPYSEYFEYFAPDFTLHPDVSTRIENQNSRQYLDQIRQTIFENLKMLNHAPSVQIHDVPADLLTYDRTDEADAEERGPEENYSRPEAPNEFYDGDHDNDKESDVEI
HDAC3, sequence (Q9Y618 395-489 partner limits assumed): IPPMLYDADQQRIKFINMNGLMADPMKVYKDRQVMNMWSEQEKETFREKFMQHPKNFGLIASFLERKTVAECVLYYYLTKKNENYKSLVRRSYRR
T1 sequence (Q8WUI4 whole entry): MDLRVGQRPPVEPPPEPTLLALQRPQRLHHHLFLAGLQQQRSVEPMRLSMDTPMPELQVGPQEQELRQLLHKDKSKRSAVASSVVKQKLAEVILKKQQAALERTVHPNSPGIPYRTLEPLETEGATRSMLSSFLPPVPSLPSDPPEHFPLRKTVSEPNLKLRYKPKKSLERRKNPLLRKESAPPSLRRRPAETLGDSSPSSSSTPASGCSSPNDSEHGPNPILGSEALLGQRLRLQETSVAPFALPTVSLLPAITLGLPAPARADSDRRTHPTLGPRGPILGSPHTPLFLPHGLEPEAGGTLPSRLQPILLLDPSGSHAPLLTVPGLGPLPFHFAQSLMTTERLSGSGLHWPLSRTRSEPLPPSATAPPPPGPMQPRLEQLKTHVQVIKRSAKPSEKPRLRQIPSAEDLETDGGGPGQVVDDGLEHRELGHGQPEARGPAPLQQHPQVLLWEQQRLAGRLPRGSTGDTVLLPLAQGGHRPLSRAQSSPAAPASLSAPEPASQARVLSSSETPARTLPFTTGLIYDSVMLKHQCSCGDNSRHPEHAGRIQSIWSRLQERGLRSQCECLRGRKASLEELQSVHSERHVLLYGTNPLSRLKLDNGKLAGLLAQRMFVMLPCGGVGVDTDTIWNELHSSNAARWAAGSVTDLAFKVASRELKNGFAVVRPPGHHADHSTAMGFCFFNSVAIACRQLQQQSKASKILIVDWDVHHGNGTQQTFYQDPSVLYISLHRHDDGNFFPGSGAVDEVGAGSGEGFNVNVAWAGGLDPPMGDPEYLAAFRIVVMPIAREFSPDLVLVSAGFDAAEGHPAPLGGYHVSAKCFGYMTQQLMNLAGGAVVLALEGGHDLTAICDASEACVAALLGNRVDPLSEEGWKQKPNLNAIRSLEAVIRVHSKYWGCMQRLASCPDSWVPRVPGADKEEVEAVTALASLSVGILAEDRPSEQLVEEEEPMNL
HDAC2, sequence (Q92769 whole entry): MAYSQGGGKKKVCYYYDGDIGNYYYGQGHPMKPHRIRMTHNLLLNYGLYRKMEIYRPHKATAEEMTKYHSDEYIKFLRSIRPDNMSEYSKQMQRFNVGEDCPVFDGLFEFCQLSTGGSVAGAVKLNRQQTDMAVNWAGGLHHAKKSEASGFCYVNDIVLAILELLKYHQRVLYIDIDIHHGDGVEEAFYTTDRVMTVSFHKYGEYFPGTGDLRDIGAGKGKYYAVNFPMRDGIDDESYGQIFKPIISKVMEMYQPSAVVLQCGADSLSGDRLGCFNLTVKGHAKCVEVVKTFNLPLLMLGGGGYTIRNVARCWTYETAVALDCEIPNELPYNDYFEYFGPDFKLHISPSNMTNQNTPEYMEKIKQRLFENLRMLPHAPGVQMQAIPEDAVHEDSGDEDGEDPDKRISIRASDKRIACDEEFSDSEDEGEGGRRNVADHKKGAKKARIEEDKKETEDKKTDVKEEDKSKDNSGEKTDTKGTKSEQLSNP
T2 sequence (Q9UQL6 whole entry): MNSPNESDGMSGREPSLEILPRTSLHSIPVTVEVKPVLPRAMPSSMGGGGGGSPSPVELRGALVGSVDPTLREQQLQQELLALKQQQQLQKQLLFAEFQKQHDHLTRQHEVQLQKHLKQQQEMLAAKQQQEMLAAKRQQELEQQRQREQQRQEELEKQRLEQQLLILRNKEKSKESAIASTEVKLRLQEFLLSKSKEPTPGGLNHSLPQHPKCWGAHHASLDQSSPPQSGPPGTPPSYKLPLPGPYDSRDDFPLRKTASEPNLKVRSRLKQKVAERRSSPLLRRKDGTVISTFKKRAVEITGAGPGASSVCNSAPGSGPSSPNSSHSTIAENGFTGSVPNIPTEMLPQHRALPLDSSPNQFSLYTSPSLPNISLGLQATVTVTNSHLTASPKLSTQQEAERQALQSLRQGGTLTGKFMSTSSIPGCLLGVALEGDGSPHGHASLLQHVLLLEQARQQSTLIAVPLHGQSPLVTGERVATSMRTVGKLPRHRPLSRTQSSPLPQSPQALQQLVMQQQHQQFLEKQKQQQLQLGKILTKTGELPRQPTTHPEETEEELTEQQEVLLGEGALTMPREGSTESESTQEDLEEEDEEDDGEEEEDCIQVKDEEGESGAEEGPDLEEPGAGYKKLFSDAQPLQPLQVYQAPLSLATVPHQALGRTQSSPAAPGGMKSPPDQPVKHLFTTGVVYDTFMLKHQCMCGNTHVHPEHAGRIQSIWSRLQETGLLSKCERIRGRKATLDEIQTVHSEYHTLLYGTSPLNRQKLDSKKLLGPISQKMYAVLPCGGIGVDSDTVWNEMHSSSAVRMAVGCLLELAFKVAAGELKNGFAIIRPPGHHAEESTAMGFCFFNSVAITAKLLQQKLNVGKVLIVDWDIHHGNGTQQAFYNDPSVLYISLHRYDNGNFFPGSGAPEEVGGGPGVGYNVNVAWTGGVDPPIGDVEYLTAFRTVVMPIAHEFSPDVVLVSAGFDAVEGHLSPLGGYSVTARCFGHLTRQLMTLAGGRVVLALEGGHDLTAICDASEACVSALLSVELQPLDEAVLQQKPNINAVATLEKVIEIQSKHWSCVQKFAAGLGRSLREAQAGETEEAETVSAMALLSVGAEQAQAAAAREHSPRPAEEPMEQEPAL
T5 sequence (P56524 whole entry): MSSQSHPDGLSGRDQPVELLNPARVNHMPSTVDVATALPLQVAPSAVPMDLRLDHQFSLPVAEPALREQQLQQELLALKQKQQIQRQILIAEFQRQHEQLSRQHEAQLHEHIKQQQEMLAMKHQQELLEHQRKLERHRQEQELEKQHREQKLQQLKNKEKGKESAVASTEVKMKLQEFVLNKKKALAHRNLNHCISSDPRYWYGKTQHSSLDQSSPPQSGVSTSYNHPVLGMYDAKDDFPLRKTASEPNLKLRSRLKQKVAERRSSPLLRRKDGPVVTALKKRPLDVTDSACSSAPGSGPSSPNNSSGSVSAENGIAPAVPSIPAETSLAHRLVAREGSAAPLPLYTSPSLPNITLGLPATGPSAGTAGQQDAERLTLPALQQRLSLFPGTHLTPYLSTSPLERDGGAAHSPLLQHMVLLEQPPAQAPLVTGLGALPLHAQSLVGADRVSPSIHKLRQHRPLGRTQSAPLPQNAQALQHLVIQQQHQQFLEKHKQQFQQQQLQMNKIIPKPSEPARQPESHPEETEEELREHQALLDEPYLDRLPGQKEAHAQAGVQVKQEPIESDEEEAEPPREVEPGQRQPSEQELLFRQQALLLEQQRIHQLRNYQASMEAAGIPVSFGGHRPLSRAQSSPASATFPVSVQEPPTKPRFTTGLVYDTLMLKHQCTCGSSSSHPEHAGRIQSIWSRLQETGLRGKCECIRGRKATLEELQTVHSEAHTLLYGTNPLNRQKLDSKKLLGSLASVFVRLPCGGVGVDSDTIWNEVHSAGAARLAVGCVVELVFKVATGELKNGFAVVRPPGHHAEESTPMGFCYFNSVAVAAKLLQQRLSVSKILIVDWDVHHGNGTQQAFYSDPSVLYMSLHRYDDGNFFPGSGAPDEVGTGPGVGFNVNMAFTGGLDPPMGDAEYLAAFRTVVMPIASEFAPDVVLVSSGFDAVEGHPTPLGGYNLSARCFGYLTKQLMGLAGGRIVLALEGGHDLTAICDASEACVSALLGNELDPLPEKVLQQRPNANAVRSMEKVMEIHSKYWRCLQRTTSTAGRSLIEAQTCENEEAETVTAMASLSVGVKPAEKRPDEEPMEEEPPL
HDAC1, sequence (Q13547 whole entry): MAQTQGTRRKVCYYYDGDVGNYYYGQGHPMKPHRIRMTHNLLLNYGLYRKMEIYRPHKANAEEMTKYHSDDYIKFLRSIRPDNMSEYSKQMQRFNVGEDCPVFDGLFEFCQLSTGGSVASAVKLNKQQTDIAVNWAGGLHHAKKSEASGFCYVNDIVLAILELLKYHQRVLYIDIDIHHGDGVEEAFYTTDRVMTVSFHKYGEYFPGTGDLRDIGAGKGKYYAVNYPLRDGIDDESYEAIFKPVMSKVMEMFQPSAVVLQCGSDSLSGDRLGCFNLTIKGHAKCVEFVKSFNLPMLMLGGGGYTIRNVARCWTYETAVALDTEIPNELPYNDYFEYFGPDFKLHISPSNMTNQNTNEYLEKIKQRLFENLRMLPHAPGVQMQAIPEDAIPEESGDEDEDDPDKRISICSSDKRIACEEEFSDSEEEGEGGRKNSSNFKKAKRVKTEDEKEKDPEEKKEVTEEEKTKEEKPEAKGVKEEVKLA
T3 sequence (Q9BY41 whole entry): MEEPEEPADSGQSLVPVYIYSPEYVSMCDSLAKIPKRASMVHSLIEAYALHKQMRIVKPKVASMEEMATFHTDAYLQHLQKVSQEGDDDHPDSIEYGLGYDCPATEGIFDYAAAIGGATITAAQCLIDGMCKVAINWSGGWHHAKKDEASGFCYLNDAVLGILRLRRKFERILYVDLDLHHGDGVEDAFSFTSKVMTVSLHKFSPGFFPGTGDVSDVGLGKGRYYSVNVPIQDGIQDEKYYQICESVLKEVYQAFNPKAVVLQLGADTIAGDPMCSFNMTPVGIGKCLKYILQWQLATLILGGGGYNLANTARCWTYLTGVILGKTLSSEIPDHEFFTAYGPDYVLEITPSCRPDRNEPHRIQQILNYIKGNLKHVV

For the compound `Cn1cc(-c2ccc(C(=O)Nc3ccccc3N)nc2)c2cc[nH]c2c1=O` [NB500], on BRD4 BD1, the “fold increased binding affinity to BRD4 BD1 in ITC vs NB462” value worked out at 3 fold, the “ITC -TΔS” value is -1.832 kcal/mol, the “ITC Ka” value was determined as 2.18E+07 Mˉ¹ and the “ITC n (stoichiometry)” value is 1.003 ± 0.022. For the same compound, on BRD4 BD1, the “ITC ΔG” value is reported as -9.676 kcal/mol, the “ITC ΔH” value is reported as -7.844 ± 0.360 kcal/mol and the “ITC ΔS” value stood at 6.358 cal/mol·K. Besides, at BRD4 BD1 (setting [3]), the Kd turned out to be 45.8 nM. Besides, the Kd on BRD4 BD1 (read-out: ITC Kd BRD4 BD1) was determined as 46 nM.

On to `Cn1cc(-c2ccc(C(=O)Nc3cc(-c4ccccc4)ccc3N)nc2)c2cc[nH]c2c1=O` [NB512], for which the remaining activity at 1 µM at HDAC7 (1 µM NB512) came to 101%; on HDAC5 (1 µM NB512), 89.3%; on HDAC8 (1 µM NB512) it was 96.4%; at HDAC11 (1 µM NB512, read-out: % Enzyme activity HDAC11) it was 97.7%; at HDAC4 (1 µM NB512) it was 91.5%; at HDAC2 (1 µM NB512), 50.3%. Besides, the remaining activity at 1 µM turned out to be 20.6% at HDAC1 (1 µM NB512) and 95.5% on HDAC3 (1 µM NB512, read-out: % Enzyme activity HDAC3). Further, the remaining activity at 10 µM on HDAC7 (10 µM NB512) was found to be 101%; on HDAC5 (10 µM NB512), 84.1%; at HDAC8 (10 µM NB512), 97.9%; on HDAC11 (10 µM NB512, read-out: % Enzyme activity HDAC11), 59.9%; on HDAC4 (10 µM NB512), 82.4%; at HDAC2 (10 µM NB512) it was 13.5%. The remaining activity at 10 µM at HDAC1 (10 µM NB512) amounted to 10.3%; on HDAC3 (10 µM NB512, read-out: % Enzyme activity HDAC3), 76.4%. In addition, the “% Enzyme activity HDAC11” value on HDAC11 (10 µM NB512) is 60%. Moreover, the “% Enzyme activity HDAC3” value at HDAC3 (10 µM NB512) stood at 76%. Moreover, the “selectivity among zinc-dependent HDACs” value in assay [1] was “high selectivity for HDAC1/2”.

For the compound `Cn1cc(-c2ccc(C(=O)Nc3ccccc3N)cc2)c2cc[nH]c2c1=O` [NB462], at BRD4 BD1, the “ITC -TΔS” value was determined as 1.371 kcal/mol, the “ITC Ka” value is recorded as 6.58E+06 Mˉ¹, the “ITC n (stoichiometry)” value stood at 0.996 ± 0.029 and the “ITC ΔG” value is -8.99 kcal/mol. In addition, at BRD4 BD1, the “ITC ΔH” value is -10.36 ± 0.501 kcal/mol and the “ITC ΔS” value is given as -4.759 cal/mol·K. Besides, the dissociation constant Kd on BRD4 BD1 (setting [3]) worked out at 152 nM.

For the compound `Cn1cc(-c2ccc(C(=O)Nc3cc(-c4ccccc4)ccc3N)cc2)c2cc[nH]c2c1=O` [NB503], the “HEXIM1 mRNA levels” value in [2] was “strongest effect”.
